Experimental data from US20060122201A1, “Uracil-thioether” (priority 2002, published 2006).

Molecular target: T1, Pol III (PolC) from S. aureus (Staphylococcus aureus, UniProt P0C1P9)
T1 construct: His tag (pET15b vector) (N); made in house; host or cells: E. coli BL21(DE3)
T1 sequence (P0C1P9 1-1435): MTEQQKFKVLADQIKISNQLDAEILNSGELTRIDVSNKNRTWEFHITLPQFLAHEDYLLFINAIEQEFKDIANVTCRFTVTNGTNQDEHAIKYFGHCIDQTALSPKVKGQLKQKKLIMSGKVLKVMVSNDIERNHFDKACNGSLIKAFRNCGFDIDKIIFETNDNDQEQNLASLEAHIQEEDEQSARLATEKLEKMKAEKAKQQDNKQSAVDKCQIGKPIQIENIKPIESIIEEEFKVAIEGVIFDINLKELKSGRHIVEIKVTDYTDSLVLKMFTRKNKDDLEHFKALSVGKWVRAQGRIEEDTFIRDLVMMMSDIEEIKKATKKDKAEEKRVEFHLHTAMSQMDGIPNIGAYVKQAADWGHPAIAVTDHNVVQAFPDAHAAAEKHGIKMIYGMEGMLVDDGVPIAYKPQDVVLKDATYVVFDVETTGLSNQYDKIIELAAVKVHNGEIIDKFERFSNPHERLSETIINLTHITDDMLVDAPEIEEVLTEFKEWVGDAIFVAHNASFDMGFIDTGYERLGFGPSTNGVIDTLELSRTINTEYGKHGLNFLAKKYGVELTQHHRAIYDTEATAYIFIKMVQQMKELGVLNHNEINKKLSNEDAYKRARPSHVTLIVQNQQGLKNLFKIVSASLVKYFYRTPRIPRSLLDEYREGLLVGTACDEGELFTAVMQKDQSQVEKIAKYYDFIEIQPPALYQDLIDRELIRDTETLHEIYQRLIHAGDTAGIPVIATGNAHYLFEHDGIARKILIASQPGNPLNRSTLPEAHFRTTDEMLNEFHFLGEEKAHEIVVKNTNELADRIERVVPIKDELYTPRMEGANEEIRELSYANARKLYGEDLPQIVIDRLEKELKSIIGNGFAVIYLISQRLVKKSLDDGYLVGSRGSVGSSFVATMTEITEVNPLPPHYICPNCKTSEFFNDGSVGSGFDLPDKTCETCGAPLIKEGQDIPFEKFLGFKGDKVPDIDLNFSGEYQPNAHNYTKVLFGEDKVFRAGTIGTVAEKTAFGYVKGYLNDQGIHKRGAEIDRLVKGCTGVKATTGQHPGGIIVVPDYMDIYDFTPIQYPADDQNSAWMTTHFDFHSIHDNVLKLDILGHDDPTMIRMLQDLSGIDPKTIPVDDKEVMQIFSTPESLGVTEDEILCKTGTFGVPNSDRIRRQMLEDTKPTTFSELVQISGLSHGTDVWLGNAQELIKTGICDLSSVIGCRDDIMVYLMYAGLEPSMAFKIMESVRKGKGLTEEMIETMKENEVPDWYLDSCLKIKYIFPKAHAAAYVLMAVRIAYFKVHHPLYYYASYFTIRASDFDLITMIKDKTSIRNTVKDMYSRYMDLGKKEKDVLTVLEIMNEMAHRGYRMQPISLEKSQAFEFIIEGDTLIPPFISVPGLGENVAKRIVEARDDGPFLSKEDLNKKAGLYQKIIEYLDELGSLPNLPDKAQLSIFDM
Experiment: Determination of the IC50 for Polymerase III (PolC), coupled pyrophosphate/ATP sulfurylase/luciferase assay
Assay type: biochemical
Conditions: purified His-tagged PolC 2 nM, activated calf thymus DNA, 30° C. 30 min, luminescence readout
Description: Cloning, Expression and Purification of Pol III from S. aureus
To clone polC with an N-terminal His tag, the structural gene polC is amplified from S. aureus genomic DNA with the aid of PCR. The primers SAPol 31 5′-[…]-3′ and SAPolrev 5′-[…]-3′ are used to introduce the NdeI and BamHI restriction cleavage sites respectively in front of and behind the amplified gene. After the PCR product which is 4300 bp in size has been digested with NdeI and BamHI, it is ligated into the vector pET15b (Novagen, USA), which has likewise been digested with NdeI and BamHI, and transformed into E. coli XL-1 Blue.
After transformation into E. coli BL21(DE3), the cells are cultivated for expression of PolC at 30° C. in LB medium with 100 μg/ml ampicillin until the OD595nm is 0.5, cooled to 18° C. and, after addition of 1 mM IPTG, incubated for a further 20 hours. The cells are harvested by centrifugation, washed once in PBS with 1 mM PMSF and taken up in 50 mM NaH2PO4 pH 8.0, 10 mM imidazole, 2 mM β-mercaptoethanol, 1 mM PMSF, 20% glycerol. The cells are disrupted using a French press at 12,000 psi, the cell detritus is removed by centrifugation (27,000×g, 120 min, 4° C.) and the supernatant is stirred with an appropriate amount of Ni-NTA-agarose (from Quiagen, Germany) at 4° C. for 1 hour. After the gel matrix has been packed into a column it is washed with 50 mM NaH2PO4 pH 8.0, 2 mM β-mercaptoethanol, 20 mM imidazole, 10% glycerol, and the purified protein is then eluted with the same buffer containing 100 mM imidazole. The purified protein is mixed with 50% glycerol and stored at −20° C.
Determination of the IC50 for Polymerase III
The activity of PolC is measured in an enzymatically coupled reaction, with the pyrophosphate formed during the polymerization being converted with the aid of ATP sulfurylase into ATP, which is detected using firefly luciferase. The reaction mixture contains, in a final volume of 50 μl, 50 mM Tris/Cl pH 7.5; 5 mM DTT, 10 mM MgCl2, 30 mM NaCl, 0.1 mg/ml BSA, 10% glycerol, 20 μM each DATP, dTTP, dCTP, 2 U/ml activated calf thymus DNA (from Worthington, USA), 20 μM APS and 0.06 mM luciferin. The reaction is started by adding purified PolC in a final concentration of 2 nM and is incubated at 30° C. for 30 min. The amount of pyrophosphate formed is then converted into ATP by adding ATP sulfurylase (Sigma, USA) in a final concentration of 5 nM and incubating at 30° C. for 15 min. After addition of 0.2 nM firefly luciferase, the luminescence is measured in a luminometer for 60 s. The IC50 is reported as the concentration of an inhibitor which leads to 50% inhibition of the enzymic activity of PolC.

Row | Compound | IC50
1 | CSc1nnc(CSCCn2c(=O)cc(Nc3ccc4c(c3)CCC4)[nH]c2=O)s1 [Example 15] | 110 nM
2 | CCc1cc(Nc2cc(=O)n(CCSCC(=O)N3CCN(c4ccc([N+](=O)[O-])cc4)CC3)c(=O)[nH]2)ccc1C [Example 34] | 300 nM

Second part, the compound after the results:

Row | IC50 | Compound
3 | 50 nM | CCc1cc(Nc2cc(=O)n(CCSCc3nnc(C)s3)c(=O)[nH]2)ccc1C [Example 16]
4 | 80 nM | CCc1cc(Nc2cc(=O)n(CCSCc3c(C)noc3C)c(=O)[nH]2)ccc1C [Example 42]
5 | 400 nM | CCc1cc(Nc2cc(=O)n(CCCSCC(=O)N3CCN(c4ccc(F)cc4)CC3)c(=O)[nH]2)ccc1C [Example 47]
